Patent US11141464B2, “GLP-1 polypeptide having GLP-1 receptor agonist activity and use thereof” (Liu Jianning, priority 2018, dated 2021)
Where no end group is shown, it is not given here.

Legend:
[1] = molecular target: dipeptidyl peptidase IV (DPP-IV) (Homo sapiens, UniProt P27487); conditions: variants with the 8-position alanine replaced, compared with GLP-1 or its fragment; cited from earlier work
[2] = system: STZ rats; assay: Efficacy study by subcutaneous administration in the experimental animal model of type 2 diabetes (STZ rats), blood glucose; format: in vivo, Male Wistar rats; conditions: for Blood glucose concentration at 0 hour (mM, mean ± sem): 0 hour (start of experiment, time of injection)
Description: 1) The Experimental Animal Model of Type 2 Diabetes Male Wistar rats of approximately 200 grams were fasted overnight with free access to water. The rats were administered a single dose of streptozotocin (STZ) by intraperitoneal injection (ip) in an amount of 45 mg/Kg. Then, the rats were normally fed and tested for fasting blood glucose. […] 2) Experimental Method Forty-eight rats were randomly divided into 6 groups, with each of 8 rats. […] At 0 hour, the STZ rats were injected subcutaneously with different doses of drugs for test. At 3, 6, and 9 hours, blood samples were taken from the vein of the rats' tail. The blood samples were tested to provide the blood glucose concentrations of the rats.

[3] = system: patients with type 2 diabetes; conditions: after 6 weeks of GLP-1 treatment; cited from earlier work

dipeptidyl peptidase IV (DPP-IV), sequence (P27487 whole entry, species assumed, the tested form may be a part): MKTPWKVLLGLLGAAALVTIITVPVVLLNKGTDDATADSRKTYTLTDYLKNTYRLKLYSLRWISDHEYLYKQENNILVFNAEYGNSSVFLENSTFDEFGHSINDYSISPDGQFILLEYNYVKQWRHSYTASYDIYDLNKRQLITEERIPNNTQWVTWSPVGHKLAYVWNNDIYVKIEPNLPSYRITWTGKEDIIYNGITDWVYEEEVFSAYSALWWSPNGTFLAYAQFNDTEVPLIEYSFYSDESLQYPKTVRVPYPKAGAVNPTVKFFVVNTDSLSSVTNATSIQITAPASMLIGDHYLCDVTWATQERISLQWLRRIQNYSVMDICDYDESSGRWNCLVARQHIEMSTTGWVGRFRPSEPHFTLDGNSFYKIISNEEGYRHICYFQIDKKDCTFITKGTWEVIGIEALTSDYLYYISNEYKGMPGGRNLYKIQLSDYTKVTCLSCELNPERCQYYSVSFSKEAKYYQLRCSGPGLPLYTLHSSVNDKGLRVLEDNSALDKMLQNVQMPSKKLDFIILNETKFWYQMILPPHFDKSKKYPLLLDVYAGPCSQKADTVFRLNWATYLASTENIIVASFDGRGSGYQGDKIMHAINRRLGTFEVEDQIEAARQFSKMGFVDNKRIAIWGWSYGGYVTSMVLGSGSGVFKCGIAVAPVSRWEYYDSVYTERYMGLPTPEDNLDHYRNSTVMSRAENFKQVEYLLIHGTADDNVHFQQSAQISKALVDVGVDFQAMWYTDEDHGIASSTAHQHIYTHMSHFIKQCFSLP

Gly^8-GLP-1 (HDEFERHGEGTFTSDVSSYLEGQAAKEFIAWLVKGRG; Glucagon-like peptide 1; UniProt P01275 92-128, looked up, variant A8G) [variant obtained by replacing the 8-position alanine of GLP-1 or a fragment thereof with glycine]
resistance to DPP-IV mediated degradation [1]: increased resistance

His-Gly-Glu-Gly-Thr-Phe-Pro-Ser-Asp-Val-Ser-Ser-Tyr-Leu-Glu-Gly-Gln-Ala-Ala-Lys-Glu-Phe-Ile-Ala-Trp-Leu-Val-Lys-Gly-Arg-NH2 (HGEGTFPSDVSSYLEGQAAKEFIAWLVKGR-NH2) [Gly^8-Pro^13-GLP-1(7-36)NH2, GLP-1 polypeptide with T13P mutation]
Blood glucose concentration at 0 hour (mM, mean ± sem) ([2]; 1 μg/kg subcutaneous): 27.4 ± 0.8 mM | Blood glucose concentration at 3 hour (mM, mean ± sem) ([2]; 1 μg/kg subcutaneous): 23.4 ± 1.1 mM | Blood glucose concentration at 6 hour (mM, mean ± sem) ([2]; 1 μg/kg subcutaneous): 19.5 ± 0.5 mM | Blood glucose concentration at 9 hour (mM, mean ± sem) ([2]; 1 μg/kg subcutaneous): 16.3 ± 0.7 mM | Blood glucose concentration at 0 hour (mM, mean ± sem) ([2]; 10 μg/kg subcutaneous): 24.0 ± 1.1 mM | Blood glucose concentration at 3 hour (mM, mean ± sem) ([2]; 10 μg/kg subcutaneous): 18.5 ± 0.9 mM | Blood glucose concentration at 6 hour (mM, mean ± sem) ([2]; 10 μg/kg subcutaneous): 14.5 ± 0.8 mM | Blood glucose concentration at 9 hour (mM, mean ± sem) ([2]; 10 μg/kg subcutaneous): 10.5 ± 0.6 mM | blood-glucose lowering effect compared with reference drugs ([2]; subcutaneous, comparison from the data of Table 1 (vs Liraglutide P<0.01)): significantly better than that of Liraglutide

Ser^8-GLP-1 (HDEFERHSEGTFTSDVSSYLEGQAAKEFIAWLVKGRG; Glucagon-like peptide 1; UniProt P01275 92-128, looked up, variant A8S) [variant obtained by replacing the 8-position alanine of GLP-1 or a fragment thereof with serine]
resistance to DPP-IV mediated degradation [1]: increased resistance

Thr^8-GLP-1 (HDEFERHTEGTFTSDVSSYLEGQAAKEFIAWLVKGRG; Glucagon-like peptide 1; UniProt P01275 92-128, looked up, variant A8T) [variant obtained by replacing the 8-position alanine of GLP-1 or a fragment thereof with threonine]
resistance to DPP-IV mediated degradation [1]: increased resistance

^1HDEFERHAEGTFTSDVSSYLEGQAAKEFIAWLVKGRG [GLP-1, Glucagon-like peptide-1, a polypeptide containing 37 amino acids]
average weight loss [3]: 1.9 kg
